From patent publication US20040176431A1, “Antiproliferative 2-(sulfo-phenyl)-aminothiazole derivatives and pharmaceutical compositions, and methods for their use” (Pfizer, Inc., priority 2003, published 2004)

Molecular target: T1, CDK4/cyclin D3 (Homo sapiens, UniProt P11802)
T1 construct: made in house; host or cells: insect cells (baculovirus co-infection)
Experiment: Inhibition of CDK4/Cyclin D retinoblastoma kinase activity
Format: biochemical
Conditions: for inhibition at 0.1 µM / % Inhib CDK4/D @ 0.1 μM: test compound at 0.1 μM; for inhibition at 0.1 µM: read-out: % Inhib CDK4/D @ 0.1 μM; for inhibition at 1 µM / % Inhib CDK4/D @ 1 μM: test compound at 1 μM (head line shifted: 'mM' printed beside 'Structure'); for inhibition at 1 µM: read-out: % Inhib CDK4/D @ 1 μM; for inhibition at 0.03 µM / % Inhib CDK4/D @ 0.03: test compound at 0.03 (unit cell empty, head line shifted; μM); for inhibition at 0.03 µM: read-out: % Inhib CDK4/D @ 0.03
Method: Cyclin-dependent kinase activity was measured by quantifying the enzyme-catalyzed, time-dependent incorporation of radioactive phosphate from [^32P]ATP or [^33P]ATP into a protein substrate. Unless noted otherwise, assays were performed in 96-well plates in a total volume of 50 μL, in the presence of 10 mM HEPES (N-[2-hydroxyethyl]piperazine-N′-[2-ethanesulfonic acid]) (pH 7.4), 10 mM MgCl2, 25 μM adenosine triphosphate (ATP), 1 mg/mL ovalbumin, 5 μg/mL leupeptin, 1 mM dithiothreitol, 10 mM β-glycerophosphate, 0.1 mM sodium vanadate, 1 mM sodium fluoride, 2.5 mM ethylene glycol-bis(β-aminoethyl ether)-N,N,N′N′-tetraacetic acid (EGTA), 2% (v/v) dimethylsulfoxide, and 0.03-0.4 μCi [^32/33P]ATP per reaction. Reactions were initiated with enzyme, incubated at 30° C., and terminated after 20 minutes by the addition of ethylenediaminetetraacetic acid (EDTA) to 250 mM. The phosphorylated substrate was then captured on a nitrocellulose or phosphocellulose membrane using a 96-well filtration manifold, and unincorporated radioactivity was removed by repeated washing with 0.85% phosphoric acid. Radioactivity was quantified by exposing the dried membranes to a phosphorimager.
Inhibition was measured relative to control wells that contained all reaction components including 2% (v/v) DMSO but no compound, after subtraction of background radioactivity measured in the absence of enzyme. Apparent Ki values of discrete compounds were measured by assaying enzyme activity in the presence of different inhibitor compound concentrations and subtracting the background radioactivity measured in the absence of enzyme. The kinetic parameters (kcat, Km for ATP) were measured for each enzyme under the usual assay conditions by determining the dependence of initial rates on ATP concentration. Inhibition data were fit to an equation for competitive inhibition using Kaleidagraph (Synergy Software), or were fit to an equation for competitive tight-binding inhibition using the software KineTic (BioKin, Ltd.).
A complex of human CDK4 and genetically truncated (1-264) cyclin D3 was purified using traditional biochemical chromatographic techniques from insect cells that had been co-infected with the corresponding baculovirus expression vectors (see e.g., Meijer and Kim, “Chemical Inhibitors of Cyclin-Dependent Kinases,” Methods in Enzymol., 283, 113-128 (1997)). The enzyme complex (5 nM) was assayed with 0.3-0.5 μg of purified recombinant retinoblastoma protein fragment (Rb) as a substrate. The engineered Rb fragment (residues 386-928 of the native retinoblastoma protein; 62.3 kDa) contains the majority of the phosphorylation sites found in the native 106-kDa protein, as well as a tag of six histidine residues for ease of purification. Phosphorylated Rb substrate was captured by microfiltration on a nitrocellulose membrane and quantified using a phosphorimager as described above. For measurement of tight-binding inhibitors, the assay duration was extended to 60 minutes, during which the time-dependence of product formation was linear and initial rate conditions were met.

T1 sequence (P11802 whole entry): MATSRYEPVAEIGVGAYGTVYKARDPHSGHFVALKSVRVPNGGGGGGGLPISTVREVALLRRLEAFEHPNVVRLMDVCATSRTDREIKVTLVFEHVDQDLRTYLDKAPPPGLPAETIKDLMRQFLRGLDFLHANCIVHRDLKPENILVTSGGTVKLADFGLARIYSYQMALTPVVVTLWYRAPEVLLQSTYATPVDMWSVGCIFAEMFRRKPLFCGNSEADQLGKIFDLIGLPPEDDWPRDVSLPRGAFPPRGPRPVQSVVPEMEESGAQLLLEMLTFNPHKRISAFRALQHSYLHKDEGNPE
T1 sequence (P30281 1-264 partner limits assumed): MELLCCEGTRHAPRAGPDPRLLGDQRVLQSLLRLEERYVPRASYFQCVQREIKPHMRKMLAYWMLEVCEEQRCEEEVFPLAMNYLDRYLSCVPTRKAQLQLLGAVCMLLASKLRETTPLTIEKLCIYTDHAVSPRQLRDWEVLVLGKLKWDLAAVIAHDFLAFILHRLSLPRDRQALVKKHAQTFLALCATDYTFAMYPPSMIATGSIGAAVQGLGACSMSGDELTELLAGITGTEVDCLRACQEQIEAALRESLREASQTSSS

`NC(=O)CC[S+]([O-])c1ccc(Nc2nc(N)c(C(=O)c3c(Cl)cccc3Cl)s2)cc1` (stereo not drawn) [DD(108)] showed an inhibition at 0.1 µM of 60%, an inhibition at 1 µM of 73.9% and an inhibition at 0.03 µM of 14%.
With `CC(C)(CO)CSc1cccc(Nc2nc(N)c(C(=O)c3c(Cl)cccc3Cl)s2)c1` [DD(80)] the inhibition at 0.1 µM was 1.5%, the inhibition at 1 µM was 56% and the inhibition at 0.03 µM was 1.2%.
Compound `CN1CCCC1CCSc1cccc(Nc2nc(N)c(C(=O)c3c(Cl)cccc3Cl)s2)c1` (stereo not drawn) [DD(59)] has an inhibition at 0.1 µM of 37%, an inhibition at 1 µM of 57.4% and an inhibition at 0.03 µM of 20%.
Compound `CCN(CC)C(=O)CSc1ccc(Nc2nc(N)c(C(=O)c3c(Cl)cccc3Cl)s2)cc1` [DD(1)] has an inhibition at 0.1 µM of -19%, an inhibition at 1 µM of 46.9% and an inhibition at 0.03 µM of -34%.
`CN(C)CCCSc1ccc(Nc2nc(N)c(C(=O)c3c(Cl)cccc3Cl)s2)cc1` [DD(10)] showed an inhibition at 0.1 µM of 6.6%, an inhibition at 1 µM of 54.5% and an inhibition at 0.03 µM of 2.6%.
`Nc1nc(Nc2cccc([S+]([O-])CCN3CCCC3)c2)sc1C(=O)c1c(Cl)cccc1Cl` (stereo not drawn) [DD(127)] gave an inhibition at 0.1 µM of 34%, an inhibition at 1 µM of 49.6% and an inhibition at 0.03 µM of -4.3%.
For `CC(C)CCC[S+]([O-])c1cccc(Nc2nc(N)c(C(=O)c3c(Cl)cccc3Cl)s2)c1` (stereo not drawn) [DD(150)], the inhibition at 0.1 µM was 21%, the inhibition at 1 µM was 10.4% and the inhibition at 0.03 µM was 5.6%.
For `CN(C)CCC[S+]([O-])c1ccc(Nc2nc(N)c(C(=O)c3c(Cl)cccc3Cl)s2)cc1` (stereo not drawn) [DD(90)], the inhibition at 0.1 µM was 44%, the inhibition at 1 µM was 70.2% and the inhibition at 0.03 µM was -4.9%.
`Nc1nc(Nc2ccc(SCc3ccncc3)cc2)sc1C(=O)c1c(Cl)cccc1Cl` [DD(35)] showed an inhibition at 0.1 µM of 42%, an inhibition at 1 µM of 76.8% and an inhibition at 0.03 µM of 12%.
For `Cc1noc(C)c1CS(=O)(=O)c1ccc(Nc2nc(N)c(C(=O)c3c(Cl)cccc3Cl)s2)cc1` [DD(162)], the “% Inhib CDK4/D @ 0.1 μM” value was 13%, the “% Inhib CDK4/D @ 1 μM” value was 14% and the “% Inhib CDK4/D @ 0.03” value was 5.8%.
`CC(C)=CC[S+]([O-])c1cccc(Nc2nc(N)c(C(=O)c3c(Cl)cccc3Cl)s2)c1` (stereo not drawn) [DD(144)] gave an inhibition at 0.1 µM of 12%, an inhibition at 1 µM of 27.7% and an inhibition at 0.03 µM of -66%.
In the case of `NC(=O)CS(=O)(=O)c1ccc(Nc2nc(N)c(C(=O)c3c(Cl)cccc3Cl)s2)cc1` [DD(181)], the inhibition at 0.1 µM is reported as 28%, the inhibition at 1 µM is reported as 27.5% and the “% Inhib CDK4/D @ 0.03” value is reported as −10%.
For `Nc1nc(Nc2ccc(SCCN3CCCCC3)cc2)sc1C(=O)c1c(Cl)cccc1Cl` [DD(11)], the inhibition at 0.1 µM was 28%, the inhibition at 1 µM was 78.1% and the inhibition at 0.03 µM was 4.2%.
Compound `Nc1nc(Nc2cccc([S+]([O-])CCN3CCCCC3)c2)sc1C(=O)c1c(Cl)cccc1Cl` (stereo not drawn) [DD(131)] has an inhibition at 0.1 µM of 32%, an inhibition at 1 µM of 57% and an inhibition at 0.03 µM of 13%.
`Nc1nc(Nc2ccc(S(=O)(=O)Cc3ccncc3)cc2)sc1C(=O)c1c(Cl)cccc1Cl` [DD(235)] gave an inhibition at 0.1 µM of 27%, an inhibition at 1 µM of 6.9% and an inhibition at 0.03 µM of 7.7%.
Compound `CCC[S+]([O-])c1cccc(Nc2nc(N)c(C(=O)c3c(Cl)cccc3Cl)s2)c1` (stereo not drawn) [DD(145)] has an inhibition at 0.1 µM of 32%, an inhibition at 1 µM of 42.3% and an inhibition at 0.03 µM of 4.2%.
`Nc1nc(Nc2ccc([S+]([O-])CC3CC3)cc2)sc1C(=O)c1c(Cl)cccc1Cl` (stereo not drawn) [DD(96)] was tested, and the inhibition at 0.1 µM was 28%, the inhibition at 1 µM was 55.4% and the inhibition at 0.03 µM was -8.1%.
`NC(=O)CCSc1ccc(Nc2nc(N)c(C(=O)c3c(Cl)cccc3Cl)s2)cc1` [DD(29)] was tested, and the “% Inhib CDK4/D @ 0.1 μM” value was 50%, the “% Inhib CDK4/D @ 1 μM” value was 87.2% and the “% Inhib CDK4/D @ 0.03” value was 24%.
In the case of `Nc1nc(Nc2ccc(S(=O)(=O)CC3CC3)cc2)sc1C(=O)c1c(Cl)cccc1Cl` [DD(176)], the inhibition at 0.1 µM is reported as 13%, the “% Inhib CDK4/D @ 1 μM” value is reported as 5.4% and the inhibition at 0.03 µM is reported as 17%.
With `CN1CCCC1CCS(=O)(=O)c1ccc(Nc2nc(N)c(C(=O)c3c(Cl)cccc3Cl)s2)cc1` (stereo not drawn) [DD(179)] the inhibition at 0.1 µM was 24%, the “% Inhib CDK4/D @ 1 μM” value was 9.4% and the “% Inhib CDK4/D @ 0.03” value was −1.1%.
`Nc1nc(Nc2cccc([S+]([O-])CC3CC3)c2)sc1C(=O)c1c(Cl)cccc1Cl` (stereo not drawn) [DD(136)] was tested, and the inhibition at 0.1 µM was 27%, the inhibition at 1 µM was 44.9% and the inhibition at 0.03 µM was 14%.
Work on `COc1cccc(CSc2ccc(Nc3nc(N)c(C(=O)c4c(Cl)cccc4Cl)s3)cc2)c1` [DD(17)] yielded an inhibition at 0.1 µM of -3%, an inhibition at 1 µM of 28.3% and an inhibition at 0.03 µM of -9.5%.
With `Nc1nc(Nc2ccc(S(=O)(=O)Cc3ccccc3)cc2)sc1C(=O)c1c(Cl)cccc1Cl` [DD(195)] the inhibition at 0.1 µM was 25%, the inhibition at 1 µM was 22.3% and the inhibition at 0.03 µM was 3.8%.
With `Nc1nc(Nc2cccc([S+]([O-])CC3CCCO3)c2)sc1C(=O)c1c(Cl)cccc1Cl` (stereo not drawn) [DD(138)] the inhibition at 0.1 µM was 34%, the inhibition at 1 µM was 63.8% and the inhibition at 0.03 µM was 2.9%.
Work on `Cc1noc(C)c1CSc1cccc(Nc2nc(N)c(C(=O)c3c(Cl)cccc3Cl)s2)c1` [DD(42)] yielded an inhibition at 0.1 µM of 41%, an inhibition at 1 µM of 63.7% and an inhibition at 0.03 µM of 29%.
With `CC(CN(C)C)CS(=O)(=O)c1ccc(Nc2nc(N)c(C(=O)c3c(Cl)cccc3Cl)s2)cc1` (stereo not drawn) [DD(163)] the inhibition at 0.1 µM was 27%, the inhibition at 1 µM was 52.8% and the inhibition at 0.03 µM was -5.8%.
In the case of `C=CCCS(=O)(=O)c1ccc(Nc2nc(N)c(C(=O)c3c(Cl)cccc3Cl)s2)cc1` [DD(166)], the inhibition at 0.1 µM is reported as 14%, the “% Inhib CDK4/D @ 1 μM” value is reported as 14.5% and the “% Inhib CDK4/D @ 0.03” value is reported as 3.5%.
`Nc1nc(Nc2ccc([S+]([O-])CC3CNC(=O)O3)cc2)sc1C(=O)c1c(Cl)cccc1Cl` (stereo not drawn) [DD(89)] was tested, and the inhibition at 0.1 µM was 35%, the inhibition at 1 µM was 61.7% and the inhibition at 0.03 µM was -29%.
`CN1CCCC(C[S+]([O-])c2ccc(Nc3nc(N)c(C(=O)c4c(Cl)cccc4Cl)s3)cc2)C1` (stereo not drawn) [DD(107)] was tested, and the inhibition at 0.1 µM was 28%, the inhibition at 1 µM was 47.3% and the inhibition at 0.03 µM was -11%.
With `CC(C)OC(=O)CC[S+]([O-])c1ccc(Nc2nc(N)c(C(=O)c3c(Cl)cccc3Cl)s2)cc1` (stereo not drawn) [DD(118)] the inhibition at 0.1 µM was 22%, the inhibition at 1 µM was 49.9% and the inhibition at 0.03 µM was -0.7%.
Compound `Nc1nc(Nc2cccc(SCC(=O)Nc3ccccc3)c2)sc1C(=O)c1c(Cl)cccc1Cl` [DD(55)] has an inhibition at 0.1 µM of 24%, an inhibition at 1 µM of 63.4% and an inhibition at 0.03 µM of 17%.
`COC(=O)CS(=O)(=O)c1ccc(Nc2nc(N)c(C(=O)c3c(Cl)cccc3Cl)s2)cc1` [DD(226)] was tested, and the “% Inhib CDK4/D @ 0.1 μM” value was 18%, the “% Inhib CDK4/D @ 1 μM” value was −3.9% and the “% Inhib CDK4/D @ 0.03” value was −6.3%.
With `Cc1noc(C)c1CS(=O)(=O)c1ccc(Nc2nc(N)c(C(=O)c3c(Cl)cccc3Cl)s2)cc1` [DD(202)] the “% Inhib CDK4/D @ 0.1 μM” value was 29%, the “% Inhib CDK4/D @ 1 μM” value was 45.2% and the “% Inhib CDK4/D @ 0.03” value was 17%.
With `CC(C)(CO)CS(=O)(=O)c1ccc(Nc2nc(N)c(C(=O)c3c(Cl)cccc3Cl)s2)cc1` [DD(240)] the “% Inhib CDK4/D @ 0.1 μM” value was 11%, the “% Inhib CDK4/D @ 1 μM” value was 8.7% and the “% Inhib CDK4/D @ 0.03” value was 6.8%.
With `Nc1nc(Nc2cccc(SCC(O)CO)c2)sc1C(=O)c1c(Cl)cccc1Cl` (stereo not drawn) [DD(74)] the inhibition at 0.1 µM was 59%, the inhibition at 1 µM was 85.7% and the inhibition at 0.03 µM was 28%.
With `CC(C)CCOC(=O)CS(=O)(=O)c1ccc(Nc2nc(N)c(C(=O)c3c(Cl)cccc3Cl)s2)cc1` [DD(194)] the “% Inhib CDK4/D @ 0.1 μM” value was 32%, the “% Inhib CDK4/D @ 1 μM” value was 6.3% and the “% Inhib CDK4/D @ 0.03” value was −29%.
Work on `CC(C)OC(=O)CSc1cccc(Nc2nc(N)c(C(=O)c3c(Cl)cccc3Cl)s2)c1` [DD(63)] yielded an inhibition at 0.1 µM of 29%, an inhibition at 1 µM of 46.6% and an inhibition at 0.03 µM of -3.8%.
